In patent publication US20120288712A1, “ESCITALOPRAM AND SOLID PHARMACEUTICAL COMPOSITION COMPRISING THE SAME” (ratiopharm GmbH, priority 2006, published 2012):
Counter-ions that a name gives are not always drawn.

Assay: Particle size distribution by laser diffraction (Sympatec Helos)
Type: physicochemical
Details: laser diffraction at 1 bar dispersive pressure
From the text: As used herein, “particle size distribution” means the cumulative volume size distribution of equivalent spherical diameters as determined by laser diffraction at 1 bar dispersive pressure in a Sympatec Helos equipment. “Median particle size”, correspondingly, means the median of said particle size distribution. When the term “Escitalopram” is used it covers Escitalopram as well as a pharmaceutically acceptable salt and/or a pharmaceutically acceptable solvate thereof.

- median particle size: about 6.65 μm
- ratio between the median particle size and the particle size at the 95% quantile: about 0.61
SMILES: CN(C)CCC[C@@]1(c2ccc(F)cc2)OCc2cc(C#N)ccc21 [Escitalopram oxalate, (S)-1-[3-(dimethylamino)propyl]-1-(4-fluorophenyl)-1,3-dihydro-5-isobenzofurancarbonitrile]
